{"source": "patent US20120309744A1", "about": "“DOSING REGIMENS AND METHODS FOR TREATING OR PREVENTING HEPATOCELLULAR CARCINOMA” (NBI Pharmaceuticals, Inc., priority 2011, published 2012)", "key": {"MMP-3": {"tested_on": "MMP-3", "assay": "Suppression of TPA-induced MMP expression", "assay_type": "cell-based", "text": "(§1) Since MK4 inhibits MMP-1, -3 and -7 mRNA expression, the ability of MK4 to suppress TPA-induced MMP expression will be investigated. […] MK4 also suppresses the MMP-1 and -3 protein expression induced by TPA."}, "MMP-7": {"tested_on": "MMP-7", "assay": "Suppression of TPA-induced MMP expression", "assay_type": "cell-based", "text": "as §1"}, "MMP-1": {"tested_on": "MMP-1", "assay": "Suppression of TPA-induced MMP expression", "assay_type": "cell-based", "text": "as §1"}, "MMP-3 promoter": {"tested_on": "MMP-3 promoter", "assay": "MMP promoter/luciferase reporter assay in transfected HCC cells", "assay_type": "cell-based", "conditions": "HepG2 cells, luciferase reporter", "text": "To investigate the mechanism of suppression of MMP-1, -3 and -7 expression by MK4, HCC cells will be transiently transfected with MMP-1, -3 and -7 promoter/luciferase reporter plasmids and then treated with MK4."}, "[1]": {"tested_on": "dysplastic nodule or early HCC", "assay": "Subject with HCV-related liver cirrhosis and dysplastic nodule or early HCC given MK4 and an ACE-I", "assay_type": "in vivo, human", "text": "Treatment with MK4 and an ACE-I normalizes AFP and AFP-L3 tumor markers and the hepatic nodule disappears. A subject with hepatitis C virus (HCV)-related liver cirrhosis is diagnosed with what was termed a “dysplastic nodule or early HCC.” The diagnosis is based on enhanced computed tomography (CE-CT) study and elevations of the tumor markers alpha-fetoprotein (AFP) and lectin-reactive alpha-fetal protein (AFP-L3)."}, "hepatocellular carcinoma [2]": {"tested_on": "hepatocellular carcinoma", "assay": "Subject with hepatocellular carcinoma given oral MK4 (induction then maintenance)", "assay_type": "in vivo, human", "experimental": "A subject suffering from hepatocellular carcinoma is administered oral MK4 (90 mg daily once a day). After the administration of MK4 for six weeks, tumor sizes will decrease and the diameter of the main tumor is smaller. […] This case report provides compelling evidence that MK4 may be useful in the treatment of HCC."}, "hepatocellular carcinoma [3]": {"tested_on": "hepatocellular carcinoma", "assay": "Randomized study of oral MK4 versus no MK4 in patients with hepatocellular carcinoma", "assay_type": "in vivo, human", "experimental": "Patients with hepatocellular carcinoma are randomized to receive oral MK4 (90 mg/day) or no MK4. All patients receive conventional therapy with percutaneous tumor ablation and/or transcatheter arterial embolization. The rate of portal vein invasion at 12 months of follow-up will be reduced in MK4 recipients as compared with controls."}, "[4]": {"conditions": "after one-year combined treatment, MK-4 45 mg daily for additional 48 months, ACE-I halted"}, "[5]": {"conditions": "oral MK4 90 mg daily with ACE-I (e.g., perindopril; 4 mg/day)"}, "[6]": {"conditions": "after six weeks at 90 mg, additional twenty-two months at 45 mg daily once a day"}, "[7]": {"conditions": "after 12 months at 90 mg/day, additional twenty-two months at 45 mg daily once a day"}}}
{"smiles": "CC(C)=CCC/C(C)=C/CC/C(C)=C/CC/C(C)=C/CC1=C(C)C(=O)c2ccccc2C1=O", "note": "[MK4, menatetrenone]", "values": [{"measurement": "MMP-3 mRNA expression induced by TPA", "setting": "MMP-3", "value": "dose-dependently inhibits"}, {"measurement": "MMP-3 promoter activity induced by TPA", "setting": "MMP-3", "value": "dose-dependently suppresses"}, {"measurement": "MMP-3 protein expression induced by TPA", "setting": "MMP-3", "value": "suppresses"}, {"measurement": "MMP-7 mRNA expression induced by TPA", "setting": "MMP-7", "value": "dose-dependently inhibits"}, {"measurement": "MMP-7 promoter activity induced by TPA", "setting": "MMP-7", "value": "dose-dependently suppresses"}, {"measurement": "MMP-1 mRNA expression induced by TPA", "setting": "MMP-1", "value": "dose-dependently inhibits"}, {"measurement": "MMP-1 promoter activity induced by TPA", "setting": "MMP-1", "value": "dose-dependently suppresses"}, {"measurement": "MMP-1 protein expression induced by TPA", "setting": "MMP-1", "value": "suppresses"}, {"measurement": "MMP-3 promoter activity", "setting": "MMP-3 promoter", "value": "decrease MMP-3 promoter activity weakly"}, {"measurement": "serum level of AFP", "setting": "[1]; [4]", "value": "remain in the normal range"}, {"measurement": "serum level of AFP-L3", "setting": "[1]; [4]", "value": "remain in the normal range"}, {"measurement": "serum level of AFP", "setting": "[1]; [5]", "value": "gradually decrease"}, {"measurement": "serum level of AFP-L3", "setting": "[1]; [5]", "value": "gradually decrease"}, {"measurement": "recurrence", "setting": "hepatocellular carcinoma [2]; [6]", "value": "no signs of recurrence are observed"}, {"measurement": "tumor markers", "setting": "hepatocellular carcinoma [2]; [6]", "value": "remain within the normal limits"}, {"measurement": "diameter of the main tumor", "setting": "hepatocellular carcinoma [2]; oral 90 mg daily once a day for six weeks", "value": "smaller"}, {"measurement": "rate of portal vein invasion", "setting": "hepatocellular carcinoma [3]; 12 months of follow-up, oral MK4 90 mg/day plus conventional therapy, versus controls", "value": "reduced"}, {"measurement": "recurrence", "setting": "hepatocellular carcinoma [3]; [7]", "value": "no signs of recurrence are observed"}, {"measurement": "tumor markers", "setting": "hepatocellular carcinoma [3]; [7]", "value": "remain within the normal limits"}]}
